Patent US10392391B2 (Vertex Pharmaceuticals Incorporated, priority 2012, dated 2019)
Like-named read-outs stand apart in the source and are kept apart here.

Experiments:
[1] = biological target: ATR kinase, in the presence of partner proteins ATRIP, CLK2 and TopBP1 (Homo sapiens (Human), UniProt Q13535); experiment: ATR-complex inhibition assay (radioactive-phosphate incorporation); format: biochemical; details: Ki(app); 4 nM full-length ATR, 40 nM ATRIP, 40 nM CLK2, 600 nM TopBP1; 10 μM ATP; 25° C.
ATR kinase, in the presence of partner proteins ATRIP, CLK2 and TopBP1, sequence (Q13535 whole entry): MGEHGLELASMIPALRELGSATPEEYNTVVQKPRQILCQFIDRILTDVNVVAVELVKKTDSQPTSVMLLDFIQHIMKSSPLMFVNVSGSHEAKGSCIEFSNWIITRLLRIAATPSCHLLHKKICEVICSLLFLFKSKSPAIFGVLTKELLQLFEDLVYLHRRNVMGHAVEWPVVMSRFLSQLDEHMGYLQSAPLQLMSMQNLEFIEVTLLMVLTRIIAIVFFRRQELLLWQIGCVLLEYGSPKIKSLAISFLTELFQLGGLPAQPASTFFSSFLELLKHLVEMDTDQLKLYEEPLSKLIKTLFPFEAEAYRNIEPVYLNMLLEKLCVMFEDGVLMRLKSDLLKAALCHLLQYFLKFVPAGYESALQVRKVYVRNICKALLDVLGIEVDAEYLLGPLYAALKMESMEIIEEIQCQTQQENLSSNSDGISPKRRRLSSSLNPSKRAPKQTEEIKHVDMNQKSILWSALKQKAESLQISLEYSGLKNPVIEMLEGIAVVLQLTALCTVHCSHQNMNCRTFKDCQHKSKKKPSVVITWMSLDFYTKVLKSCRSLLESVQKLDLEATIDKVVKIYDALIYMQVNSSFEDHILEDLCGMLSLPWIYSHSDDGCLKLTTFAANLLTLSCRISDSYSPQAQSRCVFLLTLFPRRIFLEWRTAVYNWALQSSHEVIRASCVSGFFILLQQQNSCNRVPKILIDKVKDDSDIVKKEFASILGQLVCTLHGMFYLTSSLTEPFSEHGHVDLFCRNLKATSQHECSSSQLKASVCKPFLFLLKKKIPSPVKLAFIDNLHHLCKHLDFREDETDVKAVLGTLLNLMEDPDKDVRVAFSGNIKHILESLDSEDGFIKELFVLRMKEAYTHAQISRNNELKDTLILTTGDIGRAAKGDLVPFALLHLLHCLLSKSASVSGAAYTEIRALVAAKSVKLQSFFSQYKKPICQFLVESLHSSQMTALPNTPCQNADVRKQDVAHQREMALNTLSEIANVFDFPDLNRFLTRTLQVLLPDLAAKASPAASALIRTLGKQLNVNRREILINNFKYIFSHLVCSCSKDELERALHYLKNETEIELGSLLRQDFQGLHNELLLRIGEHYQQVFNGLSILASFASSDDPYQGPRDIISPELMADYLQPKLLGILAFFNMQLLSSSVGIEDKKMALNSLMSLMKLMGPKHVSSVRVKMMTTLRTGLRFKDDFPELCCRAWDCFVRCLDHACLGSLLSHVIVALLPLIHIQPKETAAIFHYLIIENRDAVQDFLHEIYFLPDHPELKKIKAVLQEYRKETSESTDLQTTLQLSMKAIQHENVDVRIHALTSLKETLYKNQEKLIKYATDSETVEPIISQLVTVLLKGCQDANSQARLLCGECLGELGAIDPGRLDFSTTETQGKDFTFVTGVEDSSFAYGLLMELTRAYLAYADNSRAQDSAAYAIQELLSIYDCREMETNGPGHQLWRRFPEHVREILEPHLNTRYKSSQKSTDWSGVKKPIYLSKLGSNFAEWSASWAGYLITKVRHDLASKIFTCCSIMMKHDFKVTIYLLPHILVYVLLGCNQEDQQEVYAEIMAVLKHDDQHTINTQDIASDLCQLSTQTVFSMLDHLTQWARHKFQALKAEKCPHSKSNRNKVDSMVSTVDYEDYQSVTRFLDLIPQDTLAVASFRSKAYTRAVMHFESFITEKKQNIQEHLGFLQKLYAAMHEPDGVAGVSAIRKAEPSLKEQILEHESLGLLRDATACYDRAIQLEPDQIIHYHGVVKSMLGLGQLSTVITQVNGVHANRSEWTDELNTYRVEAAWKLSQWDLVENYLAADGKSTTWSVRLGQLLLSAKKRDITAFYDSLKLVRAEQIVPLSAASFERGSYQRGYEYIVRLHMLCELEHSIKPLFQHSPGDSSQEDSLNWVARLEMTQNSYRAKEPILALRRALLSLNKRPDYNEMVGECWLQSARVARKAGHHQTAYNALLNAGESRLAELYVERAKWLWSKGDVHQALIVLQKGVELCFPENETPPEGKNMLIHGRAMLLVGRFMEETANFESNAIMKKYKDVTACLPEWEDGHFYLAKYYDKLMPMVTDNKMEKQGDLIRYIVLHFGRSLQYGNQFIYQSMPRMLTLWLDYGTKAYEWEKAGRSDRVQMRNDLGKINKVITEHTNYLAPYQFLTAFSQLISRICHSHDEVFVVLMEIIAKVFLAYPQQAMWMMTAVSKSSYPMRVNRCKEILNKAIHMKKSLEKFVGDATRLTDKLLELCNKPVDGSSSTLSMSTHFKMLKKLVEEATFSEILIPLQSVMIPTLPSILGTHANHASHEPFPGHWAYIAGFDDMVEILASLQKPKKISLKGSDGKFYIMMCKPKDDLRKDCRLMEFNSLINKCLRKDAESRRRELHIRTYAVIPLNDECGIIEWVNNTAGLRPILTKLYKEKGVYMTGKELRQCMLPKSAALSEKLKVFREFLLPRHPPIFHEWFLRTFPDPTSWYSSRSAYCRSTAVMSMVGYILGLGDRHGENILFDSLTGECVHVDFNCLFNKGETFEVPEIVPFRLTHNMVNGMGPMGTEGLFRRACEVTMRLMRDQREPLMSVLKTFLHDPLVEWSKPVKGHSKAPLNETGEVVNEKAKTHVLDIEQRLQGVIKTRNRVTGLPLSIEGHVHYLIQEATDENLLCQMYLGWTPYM
ATR kinase, in the presence of partner proteins ATRIP, CLK2 and TopBP1, sequence (Q8WXE1 whole entry partner): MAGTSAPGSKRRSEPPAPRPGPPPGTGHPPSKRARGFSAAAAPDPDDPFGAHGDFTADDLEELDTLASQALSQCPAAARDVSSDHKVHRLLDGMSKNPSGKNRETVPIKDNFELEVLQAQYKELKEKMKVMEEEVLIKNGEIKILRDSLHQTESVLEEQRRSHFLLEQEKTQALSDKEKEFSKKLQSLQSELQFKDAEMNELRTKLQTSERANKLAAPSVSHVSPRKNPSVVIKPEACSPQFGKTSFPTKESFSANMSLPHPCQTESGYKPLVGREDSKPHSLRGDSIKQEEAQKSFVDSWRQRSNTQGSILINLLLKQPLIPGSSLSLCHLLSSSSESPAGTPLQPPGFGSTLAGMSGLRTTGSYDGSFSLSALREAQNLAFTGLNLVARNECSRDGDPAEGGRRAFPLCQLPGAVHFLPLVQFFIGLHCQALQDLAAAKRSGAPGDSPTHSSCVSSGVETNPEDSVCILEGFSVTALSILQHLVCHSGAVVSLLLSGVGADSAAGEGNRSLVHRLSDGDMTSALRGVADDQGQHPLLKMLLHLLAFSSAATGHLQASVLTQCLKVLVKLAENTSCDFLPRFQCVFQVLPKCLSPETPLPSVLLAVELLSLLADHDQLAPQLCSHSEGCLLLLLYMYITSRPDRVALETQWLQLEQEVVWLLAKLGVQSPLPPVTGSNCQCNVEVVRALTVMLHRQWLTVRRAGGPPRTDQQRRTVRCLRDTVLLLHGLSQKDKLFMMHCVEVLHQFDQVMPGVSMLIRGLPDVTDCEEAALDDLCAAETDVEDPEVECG
Method: Compounds were screened for their ability to inhibit ATR kinase, in the presence of partner proteins ATRIP, CLK2 and TopBP1, using a radioactive-phosphate incorporation assay. Assays were carried out in a mixture of 50 mM Tris/HCl (pH 7.5), 10 mM MgCl2 and 1 mM DTT. Final substrate concentrations were 10 μM [g-33P]ATP (3.5 μCi 33P ATP/nmol ATP, Perkin Elmer, Massachusetts, USA) and 800 μM target peptide ([…]) (SEQ ID NO: 1); Isca Biochemicals, Cambridgeshire, UK).
Assays were carried out at 25° C. in the presence of 4 nM full-length ATR, 40 nM full-length ATRIP, 40 nM full-length CLK2 and 600 nM TopBP1 (A891-S1105). An enzyme stock buffer solution was prepared containing all of the reagents listed above, with the exception of target peptide, ATP and the test compound of interest. This enzyme stock was pre-incubated for 30 minutes at 25° C. 8.5 μL of the enzyme stock solution was placed in a 96-well plate followed by addition of 5 μl of target peptide and 2 μL of DMSO stock containing serial dilutions of the test compound (typically starting from a final concentration of 1.5 μM with 2.5-fold serial dilutions) in duplicate (final DMSO concentration 7%). The plate was pre-incubated for 10 minutes at 25° C. and the reaction initiated by addition of 15 μL [g-33P]ATP (final concentration 10 μM).
The reaction was stopped after […] by the addition of 30 μL 0.3 M phosphoric acid containing 2 mM ATP. A phosphocellulose filter 96-well plate (Multiscreen HTS MAPHNOB50, Merck-Millipore, Massachusetts, USA) was pretreated with 100 μL 0.1 M phosphoric acid prior to the addition of 45 μL of the stopped assay mixture. The plate was washed with 5×200 μL 0.1 M phosphoric acid. After drying, 50 μL Optiphase ‘SuperMix’ liquid scintillation cocktail (Perkin Elmer, Massachusetts, USA) was added to the well prior to scintillation counting (Wallac 1450 Microbeta Liquid Scintillation Counter, Perkin Elmer, Massachusetts, USA).
After removing mean background values for all of the data points, Ki(app) data were calculated from non-linear regression analysis of the initial rate data using the Prism software package (GraphPad Prism version 6.0c for Macintosh, GraphPad Software Inc., San Diego, USA).
Compounds with a Cisplatin sensitization value of <0.02 μM are marked with “+++.” Compounds with a Ki value >0.02 μM but <0.2 μM are marked with “++.” Compounds with a Ki value >0.2 μM but <5 μM are marked with “+.”

[2] = biological target: ATR kinase (full-length ATR) (Homo sapiens (Human), UniProt Q13535); experiment: ATR inhibition assay (radioactive-phosphate incorporation); format: biochemical
ATR kinase (full-length ATR), sequence (Q13535 whole entry): as the sequence (Q13535 whole entry) above
How it was run: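 Ki(app) was fitted by non-linear regression to background-corrected initial rates. Full-length ATR (5 nM) phosphorylated 800 μM peptide using 10 μM [γ-33P]ATP at 25° C in Tris/HCl pH 7.5 buffer with MgCl2, DTT and 7% DMSO. After 10-minute compound pre-incubation and 24-hour reaction, phosphocellulose filters were scintillation counted.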

[3] = Ki(app), 5 nM full-length ATR, 10 μM ATP, 25° C.

SMILES	Ki [1] [nM]	Ki [2, 3] [nM]	Ki [2] [nM]
Cn1cncc1-c1c(F)cncc1NC(=O)c1c(N)nn2cc(F)cnc12 [I-C-79, 2-amino-6-fluoro-N-(5-fluoro-4-(1-methyl-1H-imidazol-5-yl)pyridin-3-yl)pyrazolo[1,5-a]pyrimidine-3-carboxamide]	< 20	10 to 1000	–
Nc1nn2cc(F)cnc2c1C(=O)Nc1cnccc1N1CCN(C2COC2)CC1 [I-N-1, 2-amino-6-fluoro-N-(4-(4-(oxetan-3-yl)piperazin-1-yl)pyridin-3-yl)pyrazolo[1,5-a]pyrimidine-3-carboxamide]	< 20	10 to 1000	–
Cc1nnccc1-c1ccncc1NC(=O)c1c(N)nn2cc(F)cnc12 [I-C-31, 2-amino-6-fluoro-N-(4-(3-methylpyridazin-4-yl)pyridin-3-yl)pyrazolo[1,5-a]pyrimidine-3-carboxamide]	< 20	10 to 1000	–
Nc1nn2cc(F)cnc2c1C(=O)Nc1cncc(F)c1N1CCC(C(=O)N2CCN(C3COC3)CC2)CC1 [I-G-32, 2-amino-6-fluoro-N-[5-fluoro-4-[4-[4-(oxetan-3-yl)piperazine-1-carbonyl]-1-piperidyl]-3-pyridyl]pyrazolo[1,5-a]pyrimidine-3-carboxamide]	< 20	10 to 1000	–
CS(=O)(=O)C1CN(C(=O)C2CCN(c3c(F)cncc3NC(=O)c3c(N)nn4cc(F)cnc34)CC2)C1 [I-G-86, 2-amino-6-fluoro-N-(5-fluoro-4-(4-(3-(methylsulfonyl)azetidine-1-carbonyl)piperidin-1-yl)pyridin-3-yl)pyrazolo[1,5-a]pyrimidine-3-carboxamide]	–	10 to 1000	–
Nc1nn2cc(F)cnc2c1C(=O)Nc1cnccc1N1CCN(S(=O)(=O)C2CCOC2)CC1 (stereo not shown) [I-N-179, 2-amino-6-fluoro-N-(4-(4-((tetrahydrofuran-3-yl)sulfonyl)piperazin-1-yl)pyridin-3-yl)pyrazolo[1,5-a]pyrimidine-3-carboxamide]	–	10 to 1000	–
CN1CCN(c2c(NC(=O)c3c(N)nn4cc(F)cnc34)cncc2C(F)F)CC1 [I-N-111, 2-amino-N-(5-(difluoromethyl)-4-(4-methylpiperazin-1-yl)pyridin-3-yl)-6-fluoropyrazolo[1,5-a]pyrimidine-3-carboxamide]	–	–	1000 to 5000
Nc1nn2cc(F)cnc2c1C(=O)Nc1cnccc1-n1cccn1 [I-N-26, N-(4-(1H-pyrazol-1-yl)pyridin-3-yl)-2-amino-6-fluoropyrazolo[1,5-a]pyrimidine-3-carboxamide]	–	10 to 1000	–
Cn1nccc1-c1ccncc1NC(=O)c1c(N)nn2cc(F)cnc12 [I-C-57, 2-amino-6-fluoro-N-(4-(1-methyl-1H-pyrazol-5-yl)pyridin-3-yl)pyrazolo[1,5-a]pyrimidine-3-carboxamide]	–	10 to 1000	–
CN1CCN(c2c(C#N)cncc2NC(=O)c2c(N)nn3cc(F)cnc23)CC1 [I-N-113, 2-amino-N-(5-cyano-4-(4-methylpiperazin-1-yl)pyridin-3-yl)-6-fluoropyrazolo[1,5-a]pyrimidine-3-carboxamide]	–	–	1000 to 5000
CN1CCN(C(=O)C2CCN(c3c(F)cncc3NC(=O)c3c(N)nn4cc(F)cnc34)C2)CC1 (stereo not shown) [I-N-191, 2-amino-6-fluoro-N-(5-fluoro-4-(3-(4-methylpiperazine-1-carbonyl)pyrrolidin-1-yl)pyridin-3-yl)pyrazolo[1,5-a]pyrimidine-3-carboxamide]	–	–	1000 to 5000
CN1CCC[C@H]1C(=O)N1CCN(c2c(F)cncc2NC(=O)c2c(N)nn3cc(F)cnc23)CC1 [I-N-157, (S)-2-amino-6-fluoro-N-(5-fluoro-4-(4-(1-methylpyrrolidine-2-carbonyl)piperazin-1-yl)pyridin-3-yl)pyrazolo[1,5-a]pyrimidine-3-carboxamide]	–	10 to 1000	–
Cc1cncc(NC(=O)c2c(N)nn3cc(F)cnc23)c1N1CCC(C(=O)N2CCN(C)CC2)CC1 [I-G-55, 2-amino-6-fluoro-N-(5-methyl-4-(4-(4-methylpiperazine-1-carbonyl)piperidin-1-yl)pyridin-3-yl)pyrazolo[1,5-a]pyrimidine-3-carboxamide]	–	10 to 1000	–
Nc1nn2cc(F)cnc2c1C(=O)Nc1cncc(F)c1N1CCC(C(=O)N2CC3(COC3)C2)CC1 [I-G-72, N-(4-(4-(2-oxa-6-azaspiro[3.3]heptane-6-carbonyl)piperidin-1-yl)-5-fluoropyridin-3-yl)-2-amino-6-fluoropyrazolo[1,5-a]pyrimidine-3-carboxamide]	–	10 to 1000	–
Cc1ncn(C)c1-c1ccncc1NC(=O)c1c(N)nn2cc(F)cnc12 [I-C-78, 2-amino-N-(4-(1,4-dimethyl-1H-imidazol-5-yl)pyridin-3-yl)-6-fluoropyrazolo[1,5-a]pyrimidine-3-carboxamide]	–	10 to 1000	–
Cc1ccnn1-c1ccncc1NC(=O)c1c(N)nn2cc(F)cnc12 [I-N-223, 2-amino-6-fluoro-N-(4-(5-methyl-1H-pyrazol-1-yl)pyridin-3-yl)pyrazolo[1,5-a]pyrimidine-3-carboxamide]	–	10 to 1000	–
Cc1cnccc1-c1ccncc1NC(=O)c1c(N)nn2cc(F)cnc12 [I-C-29, 2-amino-6-fluoro-N-(3′-methyl-[4,4′-bipyridin]-3-yl)pyrazolo[1,5-a]pyrimidine-3-carboxamide]	–	10 to 1000	–
CC(C#N)c1cnc2c(C(=O)Nc3cnccc3N3CCN(C4COC4)CC3)c(N)nn2c1 (stereo not shown) [I-N-143, 2-amino-6-(1-cyanoethyl)-N-(4-(4-(oxetan-3-yl)piperazin-1-yl)pyridin-3-yl)pyrazolo[1,5-a]pyrimidine-3-carboxamide]	–	10 to 1000	–
Nc1nn2cc(Cl)cnc2c1C(=O)Nc1cnccc1N1CCN(C2CC2)CC1 [I-N-64, 2-amino-6-chloro-N-(4-(4-cyclopropylpiperazin-1-yl)pyridin-3-yl)pyrazolo[1,5-a]pyrimidine-3-carboxamide]	–	10 to 1000	–
Nc1nn2cc(F)cnc2c1C(=O)Nc1cncc(F)c1N1CCN2C(=O)CCC2C1 (stereo not shown) [I-N-163, 2-amino-6-fluoro-N-(5-fluoro-4-(6-oxohexahydropyrrolo[1,2-a]pyrazin-2(1H)-yl)pyridin-3-yl)pyrazolo[1,5-a]pyrimidine-3-carboxamide]	–	10 to 1000	–
N#CC1CN(C(=O)C2CCN(c3ccncc3NC(=O)c3c(N)nn4cc(F)cnc34)CC2)C1 [I-G-81, 2-amino-N-(4-(4-(3-cyanoazetidine-1-carbonyl)piperidin-1-yl)pyridin-3-yl)-6-fluoropyrazolo[1,5-a]pyrimidine-3-carboxamide]	–	10 to 1000	–
Nc1nn2cc(F)cnc2c1C(=O)Nc1cnccc1N1CCC(C(=O)N2CC(F)(F)C2)CC1 [I-G-80, 2-amino-N-(4-(4-(3,3-difluoroazetidine-1-carbonyl)piperidin-1-yl)pyridin-3-yl)-6-fluoropyrazolo[1,5-a]pyrimidine-3-carboxamide]	–	10 to 1000	–
Nc1nn2cc(F)cnc2c1C(=O)Nc1cnccc1N1CCCCCC1 [I-N-264, 2-amino-N-(4-(azepan-1-yl)pyridin-3-yl)-6-fluoropyrazolo[1,5-a]pyrimidine-3-carboxamide]	–	–	1000 to 5000
CC1(S(C)(=O)=O)CCN(c2ccncc2NC(=O)c2c(N)nn3cc(F)cnc23)CC1 [I-N-243, 2-amino-6-fluoro-N-(4-(4-methyl-4-(methylsulfonyl)piperidin-1-yl)pyridin-3-yl)pyrazolo[1,5-a]pyrimidine-3-carboxamide]	–	10 to 1000	–
Nc1nn2cc(F)cnc2c1C(=O)Nc1cnccc1-c1ccccc1 [I-C-5, 2-amino-6-fluoro-N-(4-phenylpyridin-3-yl)pyrazolo[1,5-a]pyrimidine-3-carboxamide]	–	10 to 1000	–
Nc1nn2cc(F)cnc2c1C(=O)Nc1cncc(F)c1N1CCCCC1 [I-N-270, 2-amino-6-fluoro-N-(5-fluoro-4-(piperidin-1-yl)pyridin-3-yl)pyrazolo[1,5-a]pyrimidine-3-carboxamide]	–	10 to 1000	–
Nc1nn2cc(F)cnc2c1C(=O)Nc1cncc(F)c1N1CCC(C(=O)NCCN2CCC2)CC1 [I-G-42, 2-amino-N-(4-(4-((2-(azetidin-1-yl)ethyl)carbamoyl)piperidin-1-yl)-5-fluoropyridin-3-yl)-6-fluoropyrazolo[1,5-a]pyrimidine-3-carboxamide]	–	10 to 1000	–
